Experimental findings from US11161865B2, “Radiolabeled and fluorescent PARP inhibitors for imaging and radiotherapy” (THE TRUSTEES OF THE UNIVERSITY OF PENNSYLVANIA, priority 2017, dated 2021) are described below.

Series [1] has as its system phosphorylated ATM and H2AX. The series can be described thus: Flow cytometry of phosphorylated ATM and H2AX (DNA double strand breaks). Format: cell-based. The note with it: 1 μCi/mL. The protocol: To accomplish this, γH2AX and PARP-1 were measured after being treated NLF cells for 1, 4, or 24 hours at doses of 0.1, or 1 μCi/mL. Data was analyzed by quantifying small regions of interest in the nucleus of cells and by nuclear co-localization. […] In flow cytometry experiments, DNA damage was measured by quantifying phosphorylated ATM and H2AX. Lastly, cell cycle analysis was evaluated using propidium iodide staining in control vs. [^211At]-Compound 1 treated cells.
For orientation: A flow cytometer gives signals particle by particle.

Series [2] concerns neuroblastoma cell lines. In words: Cell viability dose response curves in neuroblastoma cell lines. It counts as cell-based. The conditions noted are these: in vitro, FIG. 2A. The protocol: Two sets of cell viability assays were performed to characterize [^211At]-Compound 1 in neuroblastoma, ovarian, and breast cancer cells. […] The first assay performed was a screen of 25 cell lines at a single concentration of 5 μCi/mL. […] Following treatment cell viability was assessed using a commercially available kit that measures ATP and data was normalized to healthy controls to produce % surviving fraction. […] Cells were treated for 72 hrs followed by evaluation of cell viability. […] Effective concentrations to reduce 50% growth compared to healthy controls were calculated using standard curve fitting software.

The test system of series [3] is IMR-05 neuroblastoma xenograft. The series can be described thus: In vivo biodistribution in IMR-05 neuroblastoma xenograft model. The conditions noted are these: 5 μCi intravenously; for tumor versus normal tissue distribution of activity: 2 hrs. Also noted: species or system nude SHC mice. The protocol:
To evaluate the in vivo biodistribution of [211A]-Compound 1, an IMR-05 neuroblastoma xenograft model in nude SHC mice was utilized. Xenografts were generated by the subcutaneous injection of 5-10 million IMR-05 neuroblastoma cells. Tumors were then allowed to engraft for 3-4 weeks when they reached 200-300 mm^3. Animals were then intravenously injected with 5 μCi of [211At]-Compound 1 and tissues were harvested at time points of […], 1 and 2 hrs. Samples were then assayed for radioactivity on a gamma counter and data was normalized to percent injected dose by divining the amount of radioactivity in the tissue by the total amount injected. […] Tissue was then flash frozen and 20 micron thick sections were produced using a cryotome. Sections were then exposed to phosphor films and films were read on a digital phosphorimager.

As to `O=C1NCCn2c(-c3ccc([211At])cc3)nc3cccc1c32` [[^211At]-Compound 1], in series [1], the “increase in phosphorylation of ATM and H2AX (DNA double strand breaks) compared to control” value is 98%. The specificity of cytotoxicity entry in series [2] is on record as “PARP-1 specific”. In series [3], the “significant deastatination (accumulation of activity in lung, thyroid (neck), or stomach)” value is reported as “not observed” and the “tumor versus normal tissue distribution of activity” value was “concentration of activity in the tumor”. In series [3] (listed as 211At-Compound 1), the “tumor versus normal tissue distribution of activity” value is “higher tumor to tissue ratios in the majority of normal organs”.
